Source: the OligoGym collection
“And” between values parts separate entries of the source, which are not always exact repeats. Equal entries are not always repeated. After the bases stand the sugars from the 5' end (letter, count) and the backbone: PS all phosphorothioate, else s phosphorothioate and o phosphodiester by linkage. Methylation of C is not given here. e = 2'-O-(2-methoxyethyl) (MOE); k = constrained ethyl (cEt); d = 2'-deoxy (DNA)

Molecular target: IRF4
Conditions: ASO

Sequence	target mRNA inhibition (SK-MEL-28, 4 µM)	target mRNA inhibition (MM.1R, 1 µM)	also measured
GGCCTTGCCAGTGGTG (sugars k4 d8 k4, PS)	6%		
GATTATATACTGGTTG (sugars kkdddddddddekeke, PS)		46%	
TTATGTTAGCCAATTC (sugars kkdddddddddkdkdk, PS)		17% and 26%	
TGTAGTATGAGAAACG (sugars kkddddddddddkeke, PS)		10%	
ATCACGAGGTTGCCGA (sugars k3 d10 k3, PS)	60%		
CCACTGGCGGAGCTTC (sugars k3 d10 k3, PS)	36%		
GCAGTGATGTCAGGTT (sugars k3 d9 k3 e1, PS)		62%	target mRNA inhibition (MM.1R, 0.074 µM): 15%; target mRNA inhibition (MM.1R, 0.222 µM): 33%; target mRNA inhibition (MM.1R, 0.666 µM): 51%; target mRNA inhibition (MM.1R, 2 µM): 73%
CACGAAACACAGTCTG (sugars k3 d10 k3, PS)	52%		
GACACTTTTAGAGAGG (sugars e1 k2 d9 k2 e2, PS)		24%	
TGCCTAGGACTAAGGA (sugars k3 d10 k3, PS)	26%		
GGCACGAGGAAGCATA (sugars k3 d10 k3, PS)	62%		
TTATGTTAGCCAATTC (sugars kkddddddddddkeke, PS)		11% and 16%	
CTGAGATAGGAAGCAC (sugars k3 d10 k3, PS)	26%		
GCATTTTATCATCCGA (sugars kddddddddddkekek, PS)		21%	
CAGAAATCACGAGGTT (sugars k3 d10 k3, PS)		25%	
GACACTTTTAGAGAGG (sugars k3 d9 k3 e1, PS)		24%	
GGAACTAGTCGACAGC (sugars k3 d10 k3, PS)		18%	
AATGTGTATTACTCTT (sugars kddddddddddkekek, PS)		24% and 29%	
AGCTTGATAAAGGCTG (sugars e1 k2 d9 k2 e2, PS)		1%	
GCCAAACAAACAGAGG (sugars k3 d10 k3, PS)	22%		
CTCAGCAAGTGTCTTC (sugars k3 d10 k3, PS)	45%		
CCTCAAAGTCATTGCT (sugars k3 d10 k3, PS)	21%		
GAAGCATTTTATCATC (sugars kkddddddddddkeke, PS)		-7%	
CACAAGCAGTGATGTC (sugars k3 d10 k3, PS)	60%		
ATACATTCACACTGCC (sugars k3 d10 k3, PS)	45%		

Sequence	target mRNA inhibition (SK-MEL-28, 4 µM)	target mRNA inhibition (MM.1R, 1 µM)	also measured
AAGCAGTCATCACTCT (sugars k3 d10 k3, PS)	38%		
GCATAGGTCCTTCAGA (sugars k3 d10 k3, PS)	31%		
AGGCACATCAATGTTT (sugars kkdddddddddkekek, PS)		16% and 19%	
CCTCACTACAGAGCCC (sugars k3 d10 k3, PS)	24%		
AGCATTTTATCATCCG (sugars k3 d10 k3, PS)	81%		
TCCTGAATTTACAGCA (sugars k3 d10 k3, PS)	48%		
AACTCTCCTGTTTTCG (sugars k3 d10 k3, PS)	42%		
AGACATACCTACAAGC (sugars k3 d10 k3, PS)	50%		
AGTAAACTTGGCTGTG (sugars k3 d10 k3, PS)	38%		
TGTATACCAACGACAG (sugars k3 d10 k3, PS)	58%		
GGTTGGCTGGTCTTTG (sugars kkddddddddddkeke, PS)		76% and 60%	target mRNA inhibition (MM.1R, 0.0625 µM): 18%; target mRNA inhibition (MM.1R, 0.25 µM): 33%; target mRNA inhibition (MM.1R, 4 µM): 72%
AAGCAGTGATGTCAGG (sugars kkdddddddddekeke, PS)		65%	
GGGTCCTCCGCCCGCT (sugars k3 d10 k3, PS)	28%		
ATAGTAGGTAAGATCT (sugars k3 d10 k3, PS)	-13%		
TCACAGGTAAGGGCCC (sugars k3 d10 k3, PS)	47%		
CCCTAGGTCATACCCT (sugars k3 d10 k3, PS)	57%		
CGCGGTTGTAGTCCTG (sugars k3 d10 k3, PS)	44%		
AAACGGCCTGGAGGTG (sugars k3 d10 k3, PS)		11%	
ACTGCTTGAGGTTTTC (sugars kkkddddddddkekek, PS)		32%	
ATGGCAGTGGAGCTCC (sugars k3 d10 k3, PS)	56%		
AAGTTCATGTAAAGTC (sugars kkdddddddddekeke, PS)		34% and 29%	
GAAACAGAGACGCGGT (sugars k3 d10 k3, PS)	1%		
CCTGAGACAGACTTCC (sugars k3 d10 k3, PS)	55%		
CTTGTCTCCCCCAGAG (sugars k3 d10 k3, PS)	3%		
CAAAAATGTCCCATCC (sugars k3 d10 k3, PS)	19%		

Sequence	target mRNA inhibition (SK-MEL-28, 4 µM)	target mRNA inhibition (MM.1R, 1 µM)	also measured
CAGTTGTAAATGAGTC (sugars k3 d9 k3 e1, PS)		68%	target mRNA inhibition (MM.1R, 0.074 µM): 26%; target mRNA inhibition (MM.1R, 0.222 µM): 42%; target mRNA inhibition (MM.1R, 0.666 µM): 65%; target mRNA inhibition (MM.1R, 2 µM): 84%
AAGGTCTGAGTTGTAC (sugars k3 d10 k3, PS)		20%	
GGACACCACCTCGAGG (sugars k3 d10 k3, PS)		1%	
TAAGTGATAGGTATAC (sugars k3 d10 k3, PS)	60%		
CACTATTAAGAACTTG (sugars k3 d10 k3, PS)	33%		
CTAGAGGTGCCTTCTT (sugars k3 d10 k3, PS)	26%		
AAGTTCATGTAAAGTC (sugars kkdddddddddkdkdk, PS)		32% and 34%	
ATTAATTCTCCTATGC (sugars k3 d10 k3, PS)	15%		
GTATTTTTCCGTTCCT (sugars k3 d10 k3, PS)		84% and 74%	target mRNA inhibition (H929, 0.04 µM): 33% and 14%; target mRNA inhibition (KMS11, 0.2 µM): 82% and 96%; target mRNA inhibition (MM.1R, 0.0625 µM): 34%; target mRNA inhibition (MM.1R, 0.25 µM): 57%; target mRNA inhibition (MM.1R, 4 µM): 93%
GAGGAACTAGTCGACA (sugars k3 d10 k3, PS)	39%		
AAGAAGCACTGGCATT (sugars k3 d10 k3, PS)	22%		
CCCTCATCACCGAACA (sugars k3 d10 k3, PS)		-25%	
AGCCAACTTATAGCAC (sugars k3 d10 k3, PS)	54%		
TGAAAGACCCCAGCTA (sugars k3 d10 k3, PS)	4%		
GTCACGCCCGCAAAAG (sugars k3 d10 k3, PS)	39%		
TAAAATGTCACGCCCG (sugars k3 d10 k3, PS)		0%	
ATAAGAAGCACTGGCA (sugars k3 d10 k3, PS)	51%		
GAACACACCAGGTTAA (sugars k3 d10 k3, PS)	-2%		
ATCTACTCCAGACCCC (sugars k3 d10 k3, PS)	27%		
AGCACTGGCATTGAGA (sugars k3 d10 k3, PS)	74%		target mRNA inhibition (MM.1R, 0.074 µM): 4%; target mRNA inhibition (MM.1R, 0.222 µM): 0%; target mRNA inhibition (MM.1R, 0.666 µM): 10%; target mRNA inhibition (MM.1R, 2 µM): 24%; target mRNA inhibition (SK-MEL-28, 0.185 µM): -4% and 10% and -11%; target mRNA inhibition (SK-MEL-28, 15 µM): 86% and 83% and 98%
AAGTGGAGGTCTTTGG (sugars k3 d10 k3, PS)	66%		
CCTCCATTCTAACAGA (sugars k3 d10 k3, PS)	-18%		
AAGGAGTGCAGGAGAG (sugars k3 d10 k3, PS)	13%		
TGTTAAGTCCCATCTG (sugars k3 d10 k3, PS)	25%		
GAATTTCAGGAGCTAG (sugars k3 d10 k3, PS)	61%		

Sequence	target mRNA inhibition (SK-MEL-28, 4 µM)	target mRNA inhibition (MM.1R, 1 µM)	also measured
CAAGTGTCTAAAGTCC (sugars kddddddddddkekek, PS)		7% and 12%	
GGTAACAATACTGTAA (sugars k3 d10 k3, PS)	59%		
ATTTTATGGACCACGC (sugars k3 d10 k3, PS)	49%		
CTGCTTGAGGTTTTCC (sugars kkddddddddddkeke, PS)		44%	
CCCTAAGTTTAATTTA (sugars k3 d10 k3, PS)	-3%		
AGTGCCCAAGCCTTGA (sugars k3 d10 k3, PS)	48%		
AGGAATGAGGAAGCCG (sugars k3 d10 k3, PS)	56%		
AGGCTCCTACCCGCCT (sugars k3 d10 k3, PS)	6%		
CCATAGAGCCAGAGCA (sugars k3 d10 k3, PS)	64%		
CTACATCTACTCCAGA (sugars k3 d10 k3, PS)	22%		
TTACACCCAGAAGTAC (sugars k3 d10 k3, PS)	5%		
AGAGTGGGTGTTGGCC (sugars k3 d10 k3, PS)	25%		
TATTACTCTTAGGCAC (sugars k3 d10 k3, PS)	44%		
TGATGTGATAGCTGAG (sugars kkddddddddddkeke, PS)		54%	
TACTGCTGTACTTTCT (sugars k3 d10 k3, PS)	43%		
TCTATAGTGTTCCAGG (sugars k3 d9 k3 e1, PS)		52%	
CTACACCTACACAGGC (sugars k3 d10 k3, PS)	16%		
CTCTATAGTGTTCCAG (sugars kdddddddddkekeke, PS)		11%	
CTGCTCACTAAGCTTG (sugars k3 d10 k3, PS)	73%		target mRNA inhibition (SK-MEL-28, 0.185 µM): 6% and 5% and -1%; target mRNA inhibition (SK-MEL-28, 15 µM): 78% and 80% and 94%
GTCTAGCTGGGTTTTC (sugars k3 d10 k3, PS)	63%		
AATCTTCTGCTGATCC (sugars k3 d10 k3, PS)	72%		
TAAATGAGTCGGTCAC (sugars k3 d10 k3, PS)	76% and 65%		
GCTCAATAATCTCCCA (sugars k3 d10 k3, PS)		0%	
CAAATTCCCGGAGGAA (sugars k3 d10 k3, PS)	5%		
